Measurements published in the supplement of paper PMC10307832.

Assays:
Test in all cases: relative viability (nuclei count vs DMSO), 5 days (fraction); higher = more cells survive
A-427 = system: A-427
How it was run: (§1)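 Five library-drug doses in √10 steps were combined with a fixed anchor-drug dose, or a single drug was given alone, by pin tool to lung cancer cell lines in 1536-well plates the day after seeding. Nuclei were stained and counted after 5 days. Relative viability is the nuclei count in treated wells over that in vehicle wells, taken as the median of duplicate plates.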

COR-L 105 = system: COR-L 105
How it was run: as §1

EMC-BAC-2 = system: EMC-BAC-2
How it was run: as §1

HARA = system: HARA
How it was run: as §1

HCC-366 = system: HCC-366
How it was run: as §1

HCC-827 = system: HCC-827
How it was run: as §1

HOP-62 = system: HOP-62
How it was run: as §1

LCLC-103H = system: LCLC-103H
How it was run: as §1

NCI-H1395 = system: NCI-H1395
How it was run: as §1

NCI-H1437 = system: NCI-H1437
How it was run: as §1

NCI-H1755 = system: NCI-H1755
How it was run: as §1

NCI-H1792 = system: NCI-H1792
How it was run: as §1

NCI-H1915 = system: NCI-H1915
How it was run: as §1

NCI-H2009 = system: NCI-H2009
How it was run: as §1

NCI-H23 = system: NCI-H23
How it was run: as §1

NCI-H460 = system: NCI-H460
How it was run: as §1

NCI-H522 = system: NCI-H522
How it was run: as §1

NCI-H727 = system: NCI-H727
How it was run: as §1

SK-LU-1 = system: SK-LU-1
How it was run: as §1

SW 1573 = system: SW 1573
How it was run: as §1

Cc1sc2c(c1C)C(c1ccc(Cl)cc1)=N[C@@H](CC(=O)OC(C)(C)C)c1nnc(C)n1-2 [JQ1] + Nc1ncn([C@H]2C[C@H](O)[C@@H](CO)O2)c(=O)n1 [Decitabine] (partner 2 µM)
relative viability (A-427; first compound 0.04 µM): 0.57
relative viability (A-427; first compound 0.1265 µM): 0.506
relative viability (A-427; first compound 0.4 µM): 0.591
relative viability (A-427; first compound 1.265 µM): 0.495
relative viability (A-427; first compound 4 µM): 0.478
relative viability (COR-L 105; first compound 0.04 µM): 0.558
relative viability (COR-L 105; first compound 0.1265 µM): 0.457
relative viability (COR-L 105; first compound 0.4 µM): 0.399
relative viability (COR-L 105; first compound 1.265 µM): 0.33
relative viability (COR-L 105; first compound 4 µM): 0.386
relative viability (EMC-BAC-2; first compound 0.04 µM): 0.947
relative viability (EMC-BAC-2; first compound 0.4 µM): 0.944
relative viability (EMC-BAC-2; first compound 1.265 µM): 0.726
relative viability (EMC-BAC-2; first compound 4 µM): 0.605
relative viability (HARA; first compound 0.04 µM): 0.617
relative viability (HARA; first compound 0.1265 µM): 0.49
relative viability (HARA; first compound 0.4 µM): 0.457
relative viability (HARA; first compound 1.265 µM): 0.385
relative viability (HARA; first compound 4 µM): 0.249
relative viability (HCC-366; first compound 0.04 µM): 0.309
relative viability (HCC-366; first compound 0.4 µM): 0.35
relative viability (HCC-366; first compound 1.265 µM): 0.36
relative viability (HCC-366; first compound 4 µM): 0.293
relative viability (HCC-827; first compound 0.04 µM): 0.34
relative viability (HCC-827; first compound 0.1265 µM): 0.302
relative viability (HCC-827; first compound 1.265 µM): 0.333
relative viability (HCC-827; first compound 4 µM): 0.314
relative viability (HOP-62; first compound 0.04 µM): 0.238
relative viability (HOP-62; first compound 0.1265 µM): 0.19
relative viability (HOP-62; first compound 0.4 µM): 0.201
relative viability (HOP-62; first compound 1.265 µM): 0.156
relative viability (HOP-62; first compound 4 µM): 0.128
relative viability (LCLC-103H; first compound 0.04 µM): 0.684
relative viability (LCLC-103H; first compound 0.1265 µM): 0.575
relative viability (LCLC-103H; first compound 0.4 µM): 0.544
relative viability (LCLC-103H; first compound 1.265 µM): 0.48
relative viability (LCLC-103H; first compound 4 µM): 0.542
relative viability (NCI-H1395; first compound 0.04 µM): 0.683
relative viability (NCI-H1395; first compound 0.1265 µM): 0.701
relative viability (NCI-H1395; first compound 0.4 µM): 0.71
relative viability (NCI-H1395; first compound 1.265 µM): 0.587
relative viability (NCI-H1395; first compound 4 µM): 0.457
relative viability (NCI-H1437; first compound 0.04 µM): 0.544
relative viability (NCI-H1437; first compound 0.1265 µM): 0.577
relative viability (NCI-H1437; first compound 0.4 µM): 0.55
relative viability (NCI-H1437; first compound 1.265 µM): 0.486
relative viability (NCI-H1437; first compound 4 µM): 0.37
relative viability (NCI-H1755; first compound 0.04 µM): 0.744
relative viability (NCI-H1755; first compound 0.1265 µM): 0.738
relative viability (NCI-H1755; first compound 0.4 µM): 0.747
relative viability (NCI-H1755; first compound 1.265 µM): 0.731
relative viability (NCI-H1755; first compound 4 µM): 0.719
relative viability (NCI-H1792; first compound 0.04 µM): 0.477
relative viability (NCI-H1792; first compound 0.1265 µM): 0.729
relative viability (NCI-H1792; first compound 0.4 µM): 0.525
relative viability (NCI-H1792; first compound 1.265 µM): 0.334
relative viability (NCI-H1792; first compound 4 µM): 0.187
relative viability (NCI-H1915; first compound 0.04 µM): 0.279
relative viability (NCI-H1915; first compound 0.4 µM): 0.255
relative viability (NCI-H1915; first compound 1.265 µM): 0.246
relative viability (NCI-H1915; first compound 4 µM): 0.248
relative viability (NCI-H2009; first compound 0.04 µM): 0.38
relative viability (NCI-H2009; first compound 0.1265 µM): 0.296
relative viability (NCI-H2009; first compound 0.4 µM): 0.354
relative viability (NCI-H2009; first compound 1.265 µM): 0.276
relative viability (NCI-H2009; first compound 4 µM): 0.213
relative viability (NCI-H23; first compound 0.04 µM): 0.323
relative viability (NCI-H23; first compound 0.1265 µM): 0.3
relative viability (NCI-H23; first compound 0.4 µM): 0.303
relative viability (NCI-H23; first compound 1.265 µM): 0.244
relative viability (NCI-H23; first compound 4 µM): 0.211
relative viability (NCI-H460; first compound 0.04 µM): 0.488
relative viability (NCI-H460; first compound 0.1265 µM): 0.344
relative viability (NCI-H460; first compound 0.4 µM): 0.296
relative viability (NCI-H460; first compound 1.265 µM): 0.165
relative viability (NCI-H460; first compound 4 µM): 0.226
relative viability (NCI-H522; first compound 0.04 µM): 0.656
relative viability (NCI-H522; first compound 0.1265 µM): 0.635
relative viability (NCI-H522; first compound 0.4 µM): 0.661
relative viability (NCI-H522; first compound 1.265 µM): 0.473
relative viability (NCI-H522; first compound 4 µM): 0.501
relative viability (NCI-H727; first compound 0.04 µM): 1
relative viability (NCI-H727; first compound 0.1265 µM): 0.877
relative viability (NCI-H727; first compound 0.4 µM): 0.506
relative viability (NCI-H727; first compound 1.265 µM): 0.597
relative viability (NCI-H727; first compound 4 µM): 0.649
relative viability (SK-LU-1; first compound 0.04 µM): 0.614
relative viability (SK-LU-1; first compound 0.1265 µM): 0.519
relative viability (SK-LU-1; first compound 0.4 µM): 0.416
relative viability (SK-LU-1; first compound 1.265 µM): 0.308
relative viability (SK-LU-1; first compound 4 µM): 0.213
relative viability (SW 1573; first compound 0.04 µM): 0.366
relative viability (SW 1573; first compound 0.1265 µM): 0.443
relative viability (SW 1573; first compound 0.4 µM): 0.393
relative viability (SW 1573; first compound 1.265 µM): 0.216
relative viability (SW 1573; first compound 4 µM): 0.275
